By Ki is commonly meant a dissociation constant, usually derived from enzyme kinetics or from competition with a known ligand. High values mean weaker binding, low ones tighter binding. For orientation: pKb means the Kb on a negative log10 scale, so that one unit is a factor of ten. Lower therefore signals a large Kb.

A value given as a limit tells only on which side of the number the result lay.

The values below come from ChEMBL document CHEMBL1123767, “High-affinity leukotriene receptor antagonists. Synthesis and pharmacological characterization of 2-hydroxy-3-[(2-carboxyethyl)thio]-3-[2-(8-phenyloctyl)phenyl] propanoic acid” (J Med Chem, 1987).

The target of experiment [1] is T1, Cysteinyl leukotriene receptor 1 (Cavia porcellus, UniProt Q2NNR5).
T1 sequence (Q2NNR5 whole entry): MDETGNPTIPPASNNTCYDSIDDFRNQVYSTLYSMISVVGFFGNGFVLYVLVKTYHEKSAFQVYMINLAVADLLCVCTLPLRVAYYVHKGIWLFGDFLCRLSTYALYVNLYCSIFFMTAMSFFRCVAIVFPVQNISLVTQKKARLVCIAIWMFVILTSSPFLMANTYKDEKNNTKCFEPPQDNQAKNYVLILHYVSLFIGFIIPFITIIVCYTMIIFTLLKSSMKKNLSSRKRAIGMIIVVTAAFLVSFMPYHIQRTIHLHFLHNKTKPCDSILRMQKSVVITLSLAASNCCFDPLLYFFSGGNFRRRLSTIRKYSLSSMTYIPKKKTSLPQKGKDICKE
The experiment can be described thus: Binding affinity against Cysteinyl leukotriene D4 receptor in guinea pig lung membranes using [3H]LTD4 as the radioligand. The format is cell membranes, Membrane.

The species named for experiment [2] is Cavia porcellus. Description: In vitro ability to antagonize LTD4-induced contractions of guinea pig smooth muscle (trachea) at 10 uM concentration. It counts as functional.
Experiment [3] deals with T2, Cysteinyl leukotriene receptor 1 (Cavia porcellus) (UniProt Q2NNR5).
T2 sequence (whole entry): T1 sequence (Q2NNR5 whole entry)
Description: (§1) In vitro ability to antagonize LTC4-induced contractions of guinea pig smooth muscle (trachea) at 10 uM concentration. The format is functional, tissue-based.

The species named for experiment [4] is Cavia porcellus. Described as §1. The format is functional.
The species named for experiment [5] is Homo sapiens. Description: In vitro ability to antagonize LTC4-induced contractions of human smooth muscle (bronchus) at 10 uM concentration. The format is functional.
Experiment [6] is filed under the species Homo sapiens. Description: Ability to antagonize LTD4-induced contractions of human airway smooth muscle (bronchus) at 10 uM concentration. It counts as functional.
Experiment [7] is filed under the species Cavia porcellus. Description: In vitro ability to antagonize LTD4-induced contractions of guinea pig smooth muscle (trachea) at 3 uM concentration. The format is functional.
The species entered for experiment [8] is Homo sapiens. Description: In vitro ability to antagonize LTC4-induced contractions of human smooth muscle (bronchus) at 3 uM concentration. It counts as functional.
The species named for experiment [9] is Homo sapiens. The experiment can be described thus: In vitro ability to antagonize LTD4-induced contractions of human airway smooth muscle (bronchus) at 3 uM concentration. It counts as functional.
Experiment [10] concerns the target T3, Cysteinyl leukotriene receptor 1 (Homo sapiens, UniProt Q9Y271).
T3 sequence (Q9Y271 whole entry): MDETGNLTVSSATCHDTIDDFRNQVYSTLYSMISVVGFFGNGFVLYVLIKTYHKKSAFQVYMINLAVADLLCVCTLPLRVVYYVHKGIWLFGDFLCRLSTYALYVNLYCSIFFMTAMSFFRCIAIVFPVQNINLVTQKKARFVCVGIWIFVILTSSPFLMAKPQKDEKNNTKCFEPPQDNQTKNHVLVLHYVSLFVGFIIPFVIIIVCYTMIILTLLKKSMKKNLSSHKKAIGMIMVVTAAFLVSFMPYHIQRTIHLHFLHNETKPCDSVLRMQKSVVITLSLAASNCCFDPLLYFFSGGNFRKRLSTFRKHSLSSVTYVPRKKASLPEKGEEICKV
Description: Binding affinity against Cysteinyl leukotriene D4 receptor in human lung membranes using [3H]LTD4 as the radioligand. The format is cell membranes, Membrane.

Experiment [11] has as its target T2, Cysteinyl leukotriene receptor 1 (Cavia porcellus). Particulars: Trachea, 3 uM.
Description: In vitro ability to antagonize LTC4-induced contractions of guinea pig smooth muscle (trachea) at 3 uM concentration.

On to `O=C(O)CCS[C@@H](c1ccccc1CCCCCCCCc1ccccc1)[C@H](O)C(=O)O`, for which, in experiment [1], affinity was put at a Ki of 180 nM. In addition, in experiment [2], the pKb worked out at 6.1.

`O=C(O)CCSC(CC(=O)O)c1ccccc1CCCCCCCCc1ccccc1` (stereo not given) registered a Ki in experiment [1] of 60 nM. Also, the pKb in [2] worked out at 7; in experiment [3], 5.1.

In the case of `CCCc1c(OCC(O)COc2ccc3c(=O)cc(C(=O)O)oc3c2CCC)ccc(C(C)=O)c1O` (stereo not given) [FPL-55712], the pKb in [2] came to 6.7; in experiment [4] it was 4.9; in experiment [5], 6.4; in experiment [6], 5.8.

As to `O=C(O)CCS[C@H](c1ccccc1CCCCCCCCc1ccccc1)[C@@H](O)C(=O)O` [POBILUKAST], the results for the Ki in experiment [1] and in [10] were 5 nM and 10 nM, respectively. The pKb in [7] was 8.6; in [8] it was 8.3; in experiment [9], 8.2; in experiment [11] it was below 5.4.
